Experimental data from patent US20130109049A1, “Method of Establishing a Fungal Nail Infection” (NOVABIOTICS LIMITED, priority 2009, published 2013).

What was measured:
[1] = tested on: clinical isolates T. rubrum DM 2006 1661, T. rubrum DM 2006 1358, T. mentagrophytes DM 2006 1503, T. mentagrophytes DM 2006 1498; assay: Ex vivo human nail fragment model, treatment, clinical isolates of Trichophyton spp.; format: cell-based; conditions: Experiment 3
Text: Trichophyton rubrum strain NCPF0118 was obtained from the National Collection of Pathogenic Fungi, Bristol, UK. Clinical isolates of T. rubrum DM2006 1661, T. rubrum DM2006 1358, T. mentagrophytes DM2006 1503, T. mentagrophytes DM2006 1498 were isolated from patients suffering a range of tinea infections and were purchased from Professor Michel Monod (Service de Dermatologie, Université de Lausanne, Switzerland). Clinical isolates of Candida samples were also obtained from patients suffering from Candidal infection.
The experiment was performed as described in Experiment 1 with modifications relating to the vehicle, concentrations and fungal strains used. […]
At the end of the treatment period, the nail fragments were placed in sterile 2 ml microcentrifuge tubes containing 450 μl of a suspension broth consisting of Sabouraud's Liquid Medium, pH 5.6, containing approximately 100 mg of sterile zirconia beads (0.5 mm diameter). […] Colonies were counted on dishes that contained between 20 and 200 colonies in total, and the total number of cfu present in each sample was calculated. […] The counts were corrected for the surface area of the nails studied to give cfu/cm^2, transformed to log10 and means and standard errors of the mean were calculated using GraphPad Prism 4 (GraphPad, San Diego, Calif.). […]

[2] = tested on: Trichophyton rubrum strain NCPF0118; assay: Ex vivo human nail fragment model, treatment of established infection (cfu recovered); format: cell-based
[3] = tested on: T. interdigitale NCPF0335; assay: Ex vivo human nail fragment model, prevention of infection; format: cell-based, Trichophyton interdigitale; conditions: Experiment 8
Text: Six nail fragments were obtained. Three were assigned to each of two different infection prevention protocols, involving daily application of 2 different vehicle solutions, each containing a control and 3 different concentrations of Novexatin® (NP213). These vehicle solutions were: 50% (w/v) PEG 8000, and 50% (w/v) PEG 8000 plus 20% (w/v) urea. The concentrations of Novexatin® (NP213) studied were 0% (control), 1% (Novexatin® 1), 5% (Novexatin® 2) and 10% (Novexatin® 3) (w/v). The solutions were applied at a volume of 10 μl/cm^2, corrected for the surface area of the different nail fragments as described above. The applied solution was spread over the dorsal side of the nail, to mimic the intended clinical treatment and the ventral side of the nail rested on the agar surface. Each time the nails were contacted with the vehicle solutions, they were transferred to a new sterile Petri dish containing PBS agar to minimise any build-up of fungal growth on the agar. Nail fragments were contacted with the vehicle solutions daily for 7 days. Following such contact, each nail fragment was contacted with 10 μl of a spore suspension of T. interdigitale NCPF0335 which was prepared as described above. The spore suspension was applied to the ventral side of the nail (i.e. the side next to the skin in situ). […]

## 7 to 200-mer (SEQ ID NO: 3) polyarginine [Novexatin® (NP213)]
[1]; 0%, 5%, 10% (w/v) in 50% PEG 8000 + 20% urea
  effect on survival of clinical isolates (dose dependence): dose-dependent
[1]; four clinical isolates
  effectiveness of treatment compared with T. rubrum NCPF0118: as effective as that observed when T. rubrum NCPF0118 was used
[2]; 10% (w/v) in 50% (w/v) PEG 8000 vehicle, 28 d of treatment
  killing of T. rubrum NCPF0118: > 99.9%
[2]; Experiment 1, 10% (w/v), both presence and absence of urea, daily 28 days
  fungal colonies isolated from nail fragments: no colonies were isolated
[2]; Experiment 2, 0%, 2.5%, 5%, 10% (w/v) in 50% PEG 8000 + 20% urea
  effect of treatment on fungal survival (dose dependence): dose-dependent effect
[2]; Experiment 2, 2.5% and 5.0% (w/v), daily
  reduction in fungal survival: significant reductions in fungal survival
[2]; Experiment 2, 2.5%, 5.0% and 10.0% (w/v), alternate days
  reduction in fungal survival: the reduction in fungal survival was significant
[2]; Experiment 2, 5% (w/v), difference not statistically significant
  reduction of fungal survival relative to Experiment 1: less effective in reducing fungal survival than observed in Experiment 1
[2]; Experiment 2, 10% (w/v) applied daily, PEG 8000 + 20% urea
  fungal colonies recovered: no fungal colonies were recovered
[2]; Experiment 2, 10% (w/v) applied on alternate days
  decrease in survival of the fungus compared to controls: ~3 log10
[2]; Experiment 2, 10% (w/v) applied on alternate days, PEG 8000 + 20% urea
  fungal colonies recovered: small numbers of colonies were recovered
[2]; Experiment 2, after 28 d treatment, versus vehicle alone (FIG. 7)
  visual examination of nail fragments: no visual evidence of fungal infection
[2]; Experiment 4, nail surface wiped with sterile water before application
  effect of simulated washing on antifungal efficacy: did not affect the antifungal efficacy
[2]; Experiment 4, washed or unwashed nail fragments, 28 days
  fungal colonies recovered: No fungal colonies were recovered
[3]; pre-treated daily for 7 days (1%, 5%, 10% w/v), after 24 hours from spore contact
  fungal growth on pre-treated nail fragments: no fungal growth
[3]; up to 14 days after contact with spore suspension
  fungal growth on pre-treated nail fragments: No fungal growth was observed
